Publication PMC11882969 (Nature Communications, 2025)

Biological target: CB1 (rCB1) (Rattus norvegicus, UniProt P20272)
Test: Single-point radioligand displacement screen
Assay type: binding
Conditions: for % 1H-CP-55,940 displacement (mean) from single point screen: 10 µM, 1 µM or 300 nM by cell colour (not visible); for rep1_displacement / rep2_displacement / rep3_displacement: Figure 1c source data; for rep1_displacement: replicate 1; for rep2_displacement: replicate 2; for rep3_displacement: replicate 3; for % radioligand displacement [S.D]: single point at 10 µM, three replicates

CB1 (rCB1), sequence (P20272 whole entry): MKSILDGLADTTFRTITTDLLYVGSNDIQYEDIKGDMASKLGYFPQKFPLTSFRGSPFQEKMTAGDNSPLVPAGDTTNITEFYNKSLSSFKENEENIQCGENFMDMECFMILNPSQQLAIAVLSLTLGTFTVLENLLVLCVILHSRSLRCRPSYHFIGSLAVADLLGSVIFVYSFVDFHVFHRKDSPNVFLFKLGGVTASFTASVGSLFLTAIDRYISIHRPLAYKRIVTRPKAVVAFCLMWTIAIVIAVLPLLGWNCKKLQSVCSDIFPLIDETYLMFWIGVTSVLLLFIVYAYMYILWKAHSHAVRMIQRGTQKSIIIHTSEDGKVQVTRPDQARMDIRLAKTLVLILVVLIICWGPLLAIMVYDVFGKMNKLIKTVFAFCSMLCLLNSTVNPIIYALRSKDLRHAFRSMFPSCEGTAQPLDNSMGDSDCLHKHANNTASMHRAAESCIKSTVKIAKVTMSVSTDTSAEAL

| SMILES | % 1H-CP-55,940 displacement (mean) from single point screen [%] | further results |
| --- | --- | --- |
| Cc1c(C(=O)NCC2CSc3ccccc3O2)nnn1Cc1ccc(F)cc1 (stereo not drawn) [compound 22139] | 13.03 | – |
| COC(=O)C(NC(=O)c1cc(C)n(-c2ccccc2)n1)c1cccnc1 (stereo not drawn) [compound 03453] | -5.45 | – |
| O=C(OCC1CSc2ccccc2O1)c1ccc(Cn2cccc2)cc1 (stereo not drawn) [compound 30177] | 18.40 | – |
| COC(=O)C(NC(=O)c1cc(C)n(-c2cccc(F)c2)n1)c1ccc2c(c1)CCO2 (stereo not drawn) [compound 12208] | -5.83 | – |
| C[C@@H](COC(=O)c1nn(C)c(=O)c2ccccc12)Oc1ccc(Cl)cc1 [0450_14] | 28.77 | – |
| Cc1nc(CC2CC2)oc1-c1nc(-c2ccc3c(c2)OCO3)no1 [compound 5962] | 10.45 | – |
| CCc1nc(C(=O)NC(c2ccccc2)c2cccnc2)nn1-c1ccccc1Cl (stereo not drawn) [compound 00051] | 16.02 | rep1_displacement: 20.4; rep2_displacement: 19.7; rep3_displacement: 7.9 |
| COC(=O)C(NC(=O)c1cc(C)n(-c2cccc(Cl)c2)n1)c1ccc(C(F)(F)F)cc1 (stereo not drawn) [compound 14083] | 24.29 | – |
| O=C(c1cn(-c2cccc(C(F)(F)F)c2)nn1)N1CC2(CCC2)C1C1CCCO1 (stereo not drawn) [10_23] | 25.67 | – |
| O=C1CN(C(=O)c2cc3cc(Br)ccc3o2)CN1Cc1ccccc1 [compound 46675] | 22.64 | rep1_displacement: 22.6 |
| COC(=O)C(OC(=O)c1cc(C)n(-c2cccc(Cl)c2)n1)c1ccsc1 (stereo not drawn) [compound 75729] | 29.65 | rep1_displacement: 32.1; rep2_displacement: 28; rep3_displacement: 28.8 |
| COC(=O)c1nc(N(C)CCOc2ccc(Br)cc2)sc1C [compound 22875] | 27.03 | rep1_displacement: 25.7; rep2_displacement: 29.1; rep3_displacement: 26.3 |
| COC(=O)[C@@H]1[C@@H]2CCC[C@@H]2CN1C(=O)c1nn(-c2cccc(C(F)(F)F)c2)c2c1CCC2 [10_17] | 98.24 | – |
| O=C(OCC1CSc2ccccc2O1)c1cn(Cc2cccc(F)c2)nn1 (stereo not drawn) [compound 23346] | 25.27 | – |
| COC(=O)C(NC(=O)c1ccc(-c2ccccc2F)o1)c1ccsc1 (stereo not drawn) [compound 07099] | 3.88 | – |
| COc1cccc(C2(C)CCN(C(=O)CC34CCCCC3C4(F)F)C2)c1 (stereo not drawn) [‘7218] | 52.18 | rep1_displacement: 43.4; rep2_displacement: 33; rep3_displacement: 80.2; % radioligand displacement [S.D]: 52.2% [24.79] |
| Cn1cc2c(n1)CCCC2c1nc(C2(c3cccc(C(F)(F)F)c3)CC2)no1 (stereo not drawn) [compound 18525] | 41.38 | rep1_displacement: 39.7; rep2_displacement: 46.2; rep3_displacement: 38.2 |
| COC(=O)C(NC(=O)c1csc(Cc2ccccc2)n1)c1cccs1 (stereo not drawn) [compound 61815] | 32.97 | – |
| CCOC(=O)C(NC(=O)c1cc(C)n(-c2cccc(F)c2)n1)C1CCOCC1 (stereo not drawn) [compound 64854] | -2.51 | – |
| Cc1c(C(=O)OCC2CSc3ccccc3O2)cnn1-c1ccccc1 (stereo not drawn) [compound 3189] | 46.85 | – |

| SMILES | % 1H-CP-55,940 displacement (mean) from single point screen [%] | further results |
| --- | --- | --- |
| N#Cc1cccc(-n2ccc(C(=O)OCC3CSc4ccccc4O3)n2)c1 (stereo not drawn) [compound 2666] | 30.46 | – |
| O=C(OCC1CSc2ccccc2O1)c1cnn(Cc2ccccc2)c1Br (stereo not drawn) [7800_27] | 70.31 | – |
| Cc1cc(C(=O)NC(CCO)Cc2ccccc2)nn1-c1ccc(F)cc1 (stereo not drawn) [compound 15032] | -0.53 | – |
| CC(O)C1CCCN(C(=O)c2cc(Oc3cccc(Br)c3)ccn2)C1 (stereo not drawn) [compound 74717] | 17.22 | rep1_displacement: 25.4; rep2_displacement: 11.4; rep3_displacement: 14.8 |
| Cc1c(C(=O)OCC2CN(c3ccccc3)C(=O)O2)cnn1Cc1ccccc1 (stereo not drawn) [compound 5081] | 31.79 | – |
| CCOc1cncc(NC(=O)c2cc(C)n(-c3cccc(Cl)c3)n2)n1 [compound 88160] | -5.87 | – |
| Cc1nc(CC2CC2)oc1-c1nc(Cn2c(C(C)C)nc3ccccc32)no1 [7019_26] | 42.67 | – |
| CCOC(=O)C1(NC(=O)c2cc(C)n(-c3cccc(Cl)c3)n2)CCCCC1 [compound 64801] | 31.60 | – |
| Cc1nn(CC2CC2)c(C)c1Cc1nc(Cc2ccc3c(c2)OCO3)no1 [7019_28] | 36.27 | – |
| Cc1nc(CC2CC2)oc1-c1nc(Cc2ccc(OCc3ccccn3)cc2)no1 [compound 9841] | 19.42 | – |
| Cn1nc(-c2nnc(C(C)(C)Oc3cccc(Cl)c3)o2)c2ccccc2c1=O [0450_22] | 43.54 | – |
| Cc1ccc(OCCC(=O)N2CC3CCCN3c3ccccc32)c(C)c1 (stereo not drawn) [compound 26701] | 35.34 | rep1_displacement: 39; rep2_displacement: 34.5; rep3_displacement: 32.6 |
| CC(C)n1nc(-c2nnc(C(C)(C)Oc3ccc(Cl)cc3)o2)c2ccccc2c1=O [compound 41360] | 41.24 | – |
| Cn1nc(Cc2nnc(C(C)(C)Oc3ccc(Cl)cc3)o2)c2ccccc2c1=O [0450_25] | -12.39 | – |
| CCOC(=O)C1CN(C(=O)c2cc(C)n(-c3cccc(C(F)(F)F)c3)n2)CC12CC2 (stereo not drawn) [10_21] | 83.57 | – |
| Cn1nc(CNC(=O)C(C)(C)Oc2ccc(Cl)cc2)c2ccccc2c1=O [0450_26] | 7.64 | – |
| COc1ccc(Cc2noc(-c3oc(CC4CC4)nc3C)n2)cc1 [compound 8861] | 15.76 | – |
| O=c1ccc(-c2nc(C(F)(F)c3ccc(F)cc3)no2)nn1-c1ccc(F)cc1 [‘2443] | 51.06 | rep1_displacement: 53.4; rep2_displacement: 54.3; rep3_displacement: 45.5; % radioligand displacement [S.D]: 51.1% [4.87] |
| Cc1c(C(=O)NCC2CSc3ccccc3O2)cnn1-c1ccc(C(F)(F)F)cc1 (stereo not drawn) [compound 6445] | 46.11 | – |
